Reference: patent US9556229B2, “Modification of peptides using a bis(thioether)arylbridge approach” (priority 2012, dated 2017)
Starred links: 1 amine or outer side, 2 acyl side, 3 side chain; linkers in the order of their positions; H or OH if unused. Positions of bridges follow the written chain, without caps; N, C: chain ends. Non-standard residues stand in square brackets, D forms with d. Residues, ends and D or L forms follow the SMILES beside them. ξ: configuration not given here. *: point of attachment. X2 = Cc1cn([C@H]2C[C@H](n3cc(CCCC(=O)*)nn3)[C@@H](CO)O2)c(=O)[nH]c1=O; Ala(9-anthryl) = N[C@@H](Cc1c2ccccc2cc2ccccc12)C(=O)O; Phe(F5) = N[C@@H](Cc1c(F)c(F)c(F)c(F)c1F)C(=O)O; Pro(4R-Bn) = O=C(O)[C@@H]1C[C@@H](Cc2ccccc2)CN1; Bip = N[C@@H](Cc1ccc(-c2ccccc2)cc1)C(=O)O; Dip = N[C@H](C(=O)O)C(c1ccccc1)c1ccccc1; 1Nal = N[C@@H](Cc1cccc2ccccc12)C(=O)O; 2Nal = N[C@@H](Cc1ccc2ccccc2c1)C(=O)O; oXylylene = c1ccc(C[*:2])c(C[*:1])c1; NMePhg = CN[C@H](C(=O)O)c1ccccc1; Tic = O=C(O)[C@@H]1Cc2ccccc2CN1; Cha = N[C@@H](CC1CCCCC1)C(=O)O; Cysteamide = C(CS[*:3])N[*:1]; Chg = N[C@H](C(=O)O)C1CCCCC1; Phg = N[C@H](C(=O)O)c1ccccc1; Tle = CC(C)(C)[C@H](N)C(=O)O; ξDisc = O=C(O)C1NCc2ccccc21; N(CH2CH2)2NH = C1CN(*)CCN1; NMeA = CN[C@@H](C)C(=O)O

Columns and labels:
[1] = system: HCT116 colorectal cancer cells
[2] = system: MDA-MB-231 breast cancer cell line
[3] = system: MCF-7 breast cancer cell line; assay: Cell viability, MCF-7, PrestoBlue assay; assay type: cell-based; conditions: NA = not active
Procedure: To test our theory we decided to focus on Smac multimers. First, we synthesized a small library of Smac compounds (see, Tables 3 and 4) varying in position 4 substituents having general structure N-MeAla-Tle-4-(trans-Bn)-Pro-Xaa-NHCH2CH2—SH (SEQ ID NO:38), which were tested in vitro using MDA-MB-231 and MCF-7 breast cancer cell lines and PrestoBlue™ assay (Invitrogen).

EC50 [1]	SMILES	EC50 [2]	EC50 [3]
83.3 µM	C[C@H](NC(=O)[C@H](Cc1c(F)c(F)c(F)c(F)c1F)NC(=O)[C@H](CO)NC(=O)[C@@H](N)[C@@H](C)O)C(=O)N[C@@H]1CSCc2ccccc2CSC[C@@H](C(=O)N[C@H](C)C(=O)N[C@@H](CC2CCCCC2)C(=O)N[C@@H](CO)C(=O)N2CCNCC2)NC(=O)[C@H](Cc2cccc3ccccc23)NC(=O)[C@H](Cc2ccc(O)cc2)NC1=O [ArB14Ao, Thr-Ser-PhF-Ala-Cys-Tyr-Na1-Cys-Ala-Cha-Ser-Pipz] (H-TS[Phe(F5)]A[dC]Y[1Nal]C[dA][Cha]S-{N(CH2CH2)2NH}; linker 5-8 via oXylylene; N-terminus assumed)	–	–
10.7 ± 0.7 µM	N=C(N)NCCC[C@@H](N)C(=O)N[C@@H](CCCNC(=N)N)C(=O)N[C@@H](Cc1ccc2ccccc2c1)C(=O)N[C@@H](CCCNC(=N)N)C(=O)N[C@@H]1CSCc2ccccc2CSC[C@@H](C(=O)N[C@H](CCCNC(=N)N)C(=O)N[C@@H](CC2CCCCC2)C(=O)N[C@@H](CCCNC(=N)N)C(=O)N2Cc3ccccc3C2C(N)=O)NC(=O)[C@H](Cc2cccc3ccccc23)NC(=O)[C@H](Cc2ccc(O)cc2)NC1=O (stereo partly drawn) [ArB14Bo, Arg-Arg-Na2-Arg-Cys-Tyr-Na1-Cys-Arg-Cha-Arg-DISC] (H-[dR]R[2Nal]R[dC]Y[1Nal]C[dR][Cha]R[ξDisc]-NH2; linker 5-8 via oXylylene; N-terminus assumed)	–	–
–	CN[C@@H](C)C(=O)N[C@H](C(=O)N1C[C@H](Cc2ccccc2)C[C@H]1C(=O)N[C@H](C(=O)NCCS)c1ccccc1)C(C)(C)C [SMAC1, N^MeAla-Tle-(4-Bzl)Pro-Phg-NHCH2CH2SH] (H-[NMeA][Tle][Pro(4R-Bn)][Phg]-Cysteamide; N-terminus assumed)	17.2 ± 6.4 µM	31.2 ± 1.4 µM
–	CN[C@@H](C)C(=O)N[C@H](C(=O)N1C[C@H](Cc2ccccc2)C[C@H]1C(=O)N(C)[C@H](C(=O)NCCS)c1ccccc1)C(C)(C)C [SMAC2, N^MeAla-Tle-(4-Bzl)Pro-N^MePhg-NHCH2CH2SH] (H-[NMeA][Tle][Pro(4R-Bn)][NMePhg]-Cysteamide; N-terminus assumed)	23.8 ± 4.5 µM	43.6 ± 1.6 µM
–	CN[C@@H](C)C(=O)N[C@H](C(=O)N1C[C@H](Cc2ccccc2)C[C@H]1C(=O)NCc1ccc(CC(=O)NCCS)cc1)C(C)(C)C [SMAC3, N^MeAla-Tle-(4-Bzl)Pro-Amp-NHCH2CH2SH]	14.3 ± 3.2 µM	–
–	CN[C@@H](C)C(=O)N[C@H](C(=O)N1C[C@H](Cc2ccccc2)C[C@H]1C(=O)N1Cc2ccccc2C1C(=O)NCCS)C(C)(C)C (stereo partly drawn) [SMAC4, N^MeAla-Tle-(4-Bzl)Pro-Disc-NHCH2CH2SH] (H-[NMeA][Tle][Pro(4R-Bn)][ξDisc]-Cysteamide; N-terminus assumed)	47.1 ± 15.9 µM	41.6 ± 3.7 µM
–	CN[C@@H](C)C(=O)N[C@H](C(=O)N1C[C@H](Cc2ccccc2)C[C@H]1C(=O)N1c2ccccc2C[C@H]1C(=O)NCCS)C(C)(C)C [SMAC5, N^MeAla-Tle-(4-Bzl)Pro-Idc-NHCH2CH2SH]	68.3 ± 4 µM	477 ± 48.4 µM
–	CN[C@@H](C)C(=O)N[C@H](C(=O)N1C[C@H](Cc2ccccc2)C[C@H]1C(=O)N[C@H](C(=O)NCCS)C1CCCCC1)C(C)(C)C [SMAC6, N^MeAla-Tle-(4-Bzl)Pro-Chg-NHCH2CH2SH] (H-[NMeA][Tle][Pro(4R-Bn)][Chg]-Cysteamide; N-terminus assumed)	9.8 ± 3.1 µM	31.2 ± 2.1 µM
–	CN[C@@H](C)C(=O)N[C@H](C(=O)N1C[C@H](Cc2ccccc2)C[C@H]1C(=O)NC[C@H]1CC[C@H](C(=O)NCCS)CC1)C(C)(C)C [SMAC7, N^MeAla-Tle-(4-Bzl)Pro-Amc-NHCH2CH2SH]	91.8 ± 16.3 µM	86.3 ± 10.5 µM
–	CN[C@@H](C)C(=O)N[C@H](C(=O)N1C[C@H](Cc2ccccc2)C[C@H]1C(=O)N[C@@H](Cc1ccccc1)C(=O)NCCS)C(C)(C)C [SMAC8, N^MeAla-Tle-(4-Bzl)Pro-Phe-NHCH2CH2SH]	34.3 ± 6.7 µM	33.3 ± 1.5 µM
–	CN[C@@H](C)C(=O)N[C@H](C(=O)N1C[C@H](Cc2ccccc2)C[C@H]1C(=O)N[C@@H](Cc1c(F)c(F)c(F)c(F)c1F)C(=O)NCCS)C(C)(C)C [SMAC9, N^MeAla-Tle-(4-Bzl)Pro-PhF-NHCH2CH2SH]	27 ± 3.2 µM	19.8 ± 3 µM
–	CN[C@@H](C)C(=O)N[C@H](C(=O)N1C[C@H](Cc2ccccc2)C[C@H]1C(=O)N[C@H](CC(=O)NCCS)Cc1ccccc1)C(C)(C)C [SMAC10, N^MeAla-Tle-(4-Bzl)Pro-bhPhe-NHCH2CH2SH]	29.7 ± 3.3 µM	23.9 ± 2.1 µM
–	CN[C@@H](C)C(=O)N[C@H](C(=O)N1C[C@H](Cc2ccccc2)C[C@H]1C(=O)N1Cc2ccccc2C[C@H]1C(=O)NCCS)C(C)(C)C [SMAC11, N^MeAla-Tle-(4-Bzl)Pro-Tic-NHCH2CH2SH] (H-[NMeA][Tle][Pro(4R-Bn)][Tic]-Cysteamide; N-terminus assumed)	13.3 ± 1.3 µM	5.3 ± 0.6 µM
–	CN[C@@H](C)C(=O)N[C@H](C(=O)N1C[C@H](Cc2ccccc2)C[C@H]1C(=O)N[C@@H](CC1CCCCC1)C(=O)NCCS)C(C)(C)C [SMAC12, N^MeAla-Tle-(4-Bzl)Pro-Cha-NHCH2CH2SH] (H-[NMeA][Tle][Pro(4R-Bn)][Cha]-Cysteamide; N-terminus assumed)	10.1 ± 2.6 µM	21.2 ± 2.4 µM
–	CN[C@@H](C)C(=O)N[C@H](C(=O)N1C[C@H](Cc2ccccc2)C[C@H]1C(=O)NC(CC(=O)NCCS)c1cccc2ccccc12)C(C)(C)C (stereo partly drawn) [SMAC13, N^MeAla-Tle-(4-Bzl)Pro-bh^1NalGly-NHCH2CH2SH]	21.7 ± 1.3 µM	12.3 ± 0.5 µM
–	CN[C@@H](C)C(=O)N[C@H](C(=O)N1C[C@H](Cc2ccccc2)C[C@H]1C(=O)N[C@@H](Cc1cccc2ccccc12)C(=O)NCCS)C(C)(C)C [SMAC14, N^MeAla-Tle-(4-Bzl)Pro-^1Na1-NHCH2CH2SH] (H-[NMeA][Tle][Pro(4R-Bn)][1Nal]-Cysteamide; N-terminus assumed)	4.5 ± 1.1 µM	13.4 ± 0.5 µM
–	CN[C@@H](C)C(=O)N[C@H](C(=O)N1C[C@H](Cc2ccccc2)C[C@H]1C(=O)N[C@@H](Cc1cccc2ccccc12)C(=O)NCCSCc1ccc(CSCCNC(=O)[C@H](Cc2cccc3ccccc23)NC(=O)[C@@H]2C[C@@H](Cc3ccccc3)CN2C(=O)[C@@H](NC(=O)[C@H](C)NC)C(C)(C)C)cc1)C(C)(C)C [SMAC14-2X, (N^MeAla-Tle-(4-Bzl)Pro-^1Nal-NHCH2CH2S)2—(CH2)2Ph]	–	3.5 ± 1.6 µM
–	CN[C@@H](C)C(=O)N[C@H](C(=O)N1C[C@H](Cc2ccccc2)C[C@H]1C(=O)N[C@@H](Cc1cccc2ccccc12)C(=O)NCCSCc1cc(CSCCNC(=O)[C@H](Cc2cccc3ccccc23)NC(=O)[C@@H]2C[C@@H](Cc3ccccc3)CN2C(=O)[C@@H](NC(=O)[C@H](C)NC)C(C)(C)C)cc(CSCCNC(=O)[C@H](Cc2cccc3ccccc23)NC(=O)[C@@H]2C[C@@H](Cc3ccccc3)CN2C(=O)[C@@H](NC(=O)[C@H](C)NC)C(C)(C)C)c1)C(C)(C)C [SMAC14-3X, (N^MeAla-Tle-(4-Bzl)Pro-^1Nal-NHCH2CH2S)3—(CH2)3Ph]	7.2 ± 1.5 µM	120 ± 8.4 µM
–	CN[C@@H](C)C(=O)N[C@H](C(=O)N1C[C@H](Cc2ccccc2)C[C@H]1C(=O)N[C@@H](Cc1ccc2ccccc2c1)C(=O)NCCS)C(C)(C)C [SMAC15, N^MeAla-Tle-(4-Bzl)Pro-^2Nal-NHCH2CH2SH] (H-[NMeA][Tle][Pro(4R-Bn)][2Nal]-Cysteamide; N-terminus assumed)	9.4 ± 0.5 µM	10.5 ± 0.6 µM
–	CN[C@@H](C)C(=O)N[C@H](C(=O)N1C[C@H](Cc2ccccc2)C[C@H]1C(=O)N[C@H](C(=O)NCCS)C(c1ccccc1)c1ccccc1)C(C)(C)C [SMAC16, N^MeAla-Tle-(4-Bzl)Pro-Dpa-NHCH2CH2SH] (H-[NMeA][Tle][Pro(4R-Bn)][Dip]-Cysteamide; N-terminus assumed)	9.4 ± 0.6 µM	11.3 ± 1.8 µM
–	CN[C@@H](C)C(=O)N[C@H](C(=O)N1C[C@H](Cc2ccccc2)C[C@H]1C(=O)N[C@@H](Cc1ccc(-c2ccccc2)cc1)C(=O)NCCS)C(C)(C)C [SMAC17, N^MeAla-Tle-(4-Bzl)Pro-Bip-NHCH2CH2SH] (H-[NMeA][Tle][Pro(4R-Bn)][Bip]-Cysteamide; N-terminus assumed)	10.6 ± 0.9 µM	5.7 ± 0.9 µM
–	CN[C@@H](C)C(=O)N[C@H](C(=O)N1C[C@H](Cc2ccccc2)C[C@H]1C(=O)N[C@@H](Cc1ccc(-c2ccccc2)cc1)C(=O)NCCSCc1ccc(CSCCNC(=O)[C@H](Cc2ccc(-c3ccccc3)cc2)NC(=O)[C@@H]2C[C@@H](Cc3ccccc3)CN2C(=O)[C@@H](NC(=O)[C@H](C)NC)C(C)(C)C)cc1)C(C)(C)C [SMAC17-2X, (N^MeAla-Tle-(4-Bzl)Pro-Bip-NHCH2CH2S)2—(CH2)2Ph]	–	1.7 ± 0.4 µM
–	CN[C@@H](C)C(=O)N[C@H](C(=O)N1C[C@H](Cc2ccccc2)C[C@H]1C(=O)N[C@@H](Cc1c2ccccc2cc2ccccc12)C(=O)NCCS)C(C)(C)C [SMAC18, N^MeAla-Tle-(4-Bzl)Pro-Ant-NHCH2CH2SH] (H-[NMeA][Tle][Pro(4R-Bn)][Ala(9-anthryl)]-Cysteamide)	17.3 ± 1 µM	–
–	CN[C@@H](C)C(=O)N[C@H](C(=O)N1C[C@H](Cc2ccccc2)C[C@H]1C(=O)N[C@@H](Cc1c[nH]c2ccccc12)C(=O)NCCS)C(C)(C)C [SMAC19, N^MeAla-Tle-(4-Bzl)Pro-Trp-NHCH2CH2SH] (H-[NMeA][Tle][Pro(4R-Bn)]W-Cysteamide; N-terminus assumed)	36.7 ± 3.2 µM	27.6 ± 1.8 µM

SMILES	EC50 [1]	EC50 [2]	EC50 [3]
Cc1cn([C@H]2C[C@H](n3cc(CCCC(=O)N[C@H](CCCNC(=N)N)C(=O)N[C@@H](CCCNC(=N)N)C(=O)N[C@@H](Cc4c(F)c(F)c(F)c(F)c4F)C(=O)N[C@@H](CCCNC(=N)N)C(=O)N[C@@H]4CSCc5ccccc5CSC[C@@H](C(=O)N[C@H](CCCNC(=N)N)C(=O)N[C@@H](CC5CCCCC5)C(=O)N[C@@H](CCCNC(=N)N)C(=O)N5Cc6ccccc6C5C(N)=O)NC(=O)[C@H](Cc5cccc6ccccc56)NC(=O)[C@H](Cc5ccc(O)cc5)NC4=O)nn3)[C@@H](CO)O2)c(=O)[nH]c1=O (stereo partly drawn) [ArB14Co-AZT, AZT-Arg-Arg-PhF-Arg-Cys-Tyr-Na1-Cys-Arg-Cha-Arg-DISC] (X2-[dR]R[Phe(F5)]R[dC]Y[1Nal]C[dR][Cha]R[ξDisc]-NH2; linker 5-8 via oXylylene; N-terminus assumed)	30.2 ± 2.5 µM	–	–
